Test results: ChEMBL document CHEMBL1141274, “A Polysaccharide from tomato (Lycopersicon esculentum) peels affects NF-kappaB activation in LPS-stimulated J774 macrophages” (2007)

What was measured:
Type in all cases: functional
J774 [1] = assay: Inhibition of iNOS protein expression in mouse J774 cells by Bio-Rad protein assay
J774 [2] = assay: Inhibition of LPS induced iNOS mRNA level in mouse J774 cells at 10 uM by RT-PCR
J774 [3] = assay: Inhibition of LPS induced nitrite production in mouse J774 cells at 10 uM after 24 hrs relative to control; conditions: J774, 24 h
J774 [4] = assay: Inhibition of LPS induced ROS production in mouse J774 cells at 10 uM after 24 hrs relative to control; conditions: J774, 24 h

S=C(S)N1CCCC1 [PYRROLIDINE DITHIOCARBAMATE]
Inhibition (J774 [1]): 60%
inhibition at 10 µM (J774 [2]): 63.9%
inhibition at 10 µM (J774 [3]): 69.3%
inhibition at 10 µM (J774 [4]): 42.2%
